Data on 11 compounds can be found in ChEMBL document CHEMBL1201862, “PubChem BioAssay data set” (2004).

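Assay format: 96-well plates, 48-hour exposure. GI50 marks 50% less growth.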 Calls of active or inactive are those of the source. No stated cut-off is given here; in the data, active = GI50 up to about 1.1 µM and inactive = higher.

Among the test systems are A549; BT-549; CAKI-1; HCT-15; HOP-62; HT-29; Hs-578T; K562; KM12; LOX IMVI; MCF7; MDA-MB-435; Malme-3M; NCI/ADR-RES; OVCAR-8; SK-MEL-28; SK-MEL-5; SNB-75; SR; MOLT-4.
Assay in all cases: NCI-60 cell line screen, 48 h

For the compound `CCOC(=O)c1nc2c3c(ncn2n1)Oc1c(c(-c2ccccc2)nn1-c1ccccc1)C3c1ccc(Cl)cc1` (stereo not given), the GI50 was > 100 µM (inactive) in the assay with A549; > 100 µM (inactive) in the assay with BT-549; > 100 µM (inactive) in the assay on CAKI-1; > 100 µM in the assay on HCT-15; > 100 µM (inactive) in the assay with HOP-62; > 100 µM (inactive) in the assay with HT-29. Also, the GI50 in the assay with Hs-578T was > 100 µM (inactive); in the assay with K562, > 100 µM (inactive); with KM12, 15.1 µM (inactive); in the assay with LOX IMVI, > 100 µM (inactive); in the assay on MCF7, > 100 µM (inactive); with MDA-MB-435 it was > 100 µM (inactive). For the same compound, the GI50 in the assay on Malme-3M, in the assay with NCI/ADR-RES, with OVCAR-8, with SK-MEL-28, with SK-MEL-5 and in the assay with SNB-75 was > 100 µM (inactive) each time. In addition, the GI50 with SR is > 100 µM (inactive).

For `O=C1OCC2=Nc3cccc4cccc(c34)N12`, the GI50 was > 100 µM (inactive) with A549; > 100 µM (inactive) in the assay on BT-549; > 100 µM (inactive) with CAKI-1; > 100 µM in the assay on HCT-15; > 100 µM (inactive) with HOP-62; > 100 µM (inactive) with HT-29. Besides, the GI50 in the assay on Hs-578T, in the assay with K562, with KM12, in the assay with LOX IMVI, with MCF7 and in the assay on MDA-MB-435 was > 100 µM (inactive) each time. The GI50 with MOLT-4, with NCI/ADR-RES, with OVCAR-8, with SK-MEL-28, with SK-MEL-5 and in the assay with SNB-75 was > 100 µM (inactive) throughout. Moreover, the GI50 with SR is > 100 µM (inactive).

For the compound `CC(C)OC(=O)[C@H]1ON2O[C@H](O[C@@H]3CCCC[C@H]3c3ccccc3)C([Si](C)(C)c3ccccc3)[C@H]3OC(=O)[C@@H]1C32` (stereo not given in full), the GI50 is > 100 µM (inactive) with A549; > 100 µM (inactive) with BT-549; > 100 µM (inactive) with CAKI-1; > 100 µM in the assay with HCT-15; > 100 µM (inactive) with HOP-62; > 100 µM (inactive) in the assay with HT-29. Also, the GI50 was > 100 µM (inactive) in the assay with Hs-578T; 34 µM (inactive) in the assay on K562; > 100 µM (inactive) in the assay on KM12; > 100 µM (inactive) in the assay on LOX IMVI; 30.1 µM (inactive) in the assay on MCF7; > 100 µM (inactive) in the assay on MDA-MB-435. In addition, the GI50 is 18.7 µM (inactive) with MOLT-4; > 100 µM (inactive) in the assay on NCI/ADR-RES; > 100 µM (inactive) with OVCAR-8; > 100 µM (inactive) in the assay on SK-MEL-28; > 100 µM (inactive) in the assay with SK-MEL-5; > 100 µM (inactive) in the assay with SNB-75. Further, the GI50 in the assay with SR is 21.2 µM (inactive).

Turning to `OCCCCCCCCCCCOc1ccc(C2OCC3(CC=CCC3)CO2)cc1` (stereo not given), the GI50 in the assay on A549 is 17.1 µM (inactive); with BT-549, 15 µM (inactive); in the assay on CAKI-1, 17.4 µM (inactive); in the assay with HCT-15 it was 15.2 µM; in the assay on HOP-62, 14.4 µM (inactive); in the assay on HT-29, 3.85 µM (inactive). For the same compound, the GI50 in the assay with Hs-578T was 7.87 µM (inactive); in the assay on KM12, 13 µM (inactive); in the assay with LOX IMVI, 11.7 µM (inactive); with MCF7, 4.88 µM (inactive); with MDA-MB-435, 17.9 µM (inactive); in the assay on MOLT-4, 34.2 µM (inactive). Moreover, the GI50 is 18.1 µM (inactive) with Malme-3M; 14.7 µM (inactive) in the assay on NCI/ADR-RES; 17.2 µM (inactive) in the assay on OVCAR-8; 16.9 µM (inactive) in the assay with SK-MEL-28; 16.4 µM (inactive) in the assay on SK-MEL-5; 11.8 µM (inactive) with SNB-75. For the same compound, the GI50 in the assay with SR was 0.43 µM (active).

Take `CN(/N=C/c1ccnc2ccccc12)c1ccc(Cl)cc1[N+](=O)[O-]`: the GI50 in the assay on A549 is > 100 µM (inactive); in the assay on BT-549, 6.95 µM (inactive); in the assay on CAKI-1 it was > 100 µM (inactive); with HCT-15, > 100 µM; with HOP-62, 31.8 µM (inactive); in the assay on HT-29 it was 98.2 µM (inactive). The GI50 in the assay on Hs-578T was 12.5 µM (inactive); in the assay with K562, > 100 µM (inactive); with KM12 it was > 100 µM (inactive); with MCF7 it was 83.9 µM (inactive); in the assay with MDA-MB-435, > 100 µM (inactive); with MOLT-4, 45.3 µM (inactive). Also, the GI50 with Malme-3M was 70.3 µM (inactive); in the assay on NCI/ADR-RES, > 100 µM (inactive); in the assay on OVCAR-8, 85.5 µM (inactive); in the assay with SK-MEL-5, 6.12 µM (inactive); in the assay on SNB-75, 26.6 µM (inactive); in the assay with SR it was 2.64 µM (inactive).

Take `O=C(CC(=O)N1N=C(N(c2ccccc2)c2ccccc2)CC1c1ccccc1)Nc1ccccc1` (stereo not given): the GI50 with A549 is > 100 µM (inactive); in the assay with BT-549, > 100 µM (inactive); in the assay on CAKI-1 it was > 100 µM (inactive); with HCT-15 it was > 100 µM; with HOP-62, 48.5 µM (inactive); in the assay with HT-29, > 100 µM (inactive). In addition, the GI50 is 42.5 µM (inactive) with Hs-578T; > 100 µM (inactive) in the assay with K562; > 100 µM (inactive) with KM12; > 100 µM (inactive) in the assay on MCF7; > 100 µM (inactive) with MDA-MB-435; 7.31 µM (inactive) in the assay on MOLT-4. The GI50 with NCI/ADR-RES was > 100 µM (inactive); in the assay on OVCAR-8, > 100 µM (inactive); with SK-MEL-28 it was > 100 µM (inactive); in the assay with SK-MEL-5, > 100 µM (inactive); with SNB-75, 61.4 µM (inactive); with SR, 37.7 µM (inactive).

As for `Oc1ccc2c(c1)c1c(n2CCN2CCOCC2)-c2ccccc2CC1`, the GI50 is 33.6 µM (inactive) with BT-549; 33.7 µM (inactive) in the assay with CAKI-1; 25.6 µM in the assay with HCT-15; 24.7 µM (inactive) in the assay with HOP-62; 24.2 µM (inactive) in the assay on HT-29; 20.6 µM (inactive) in the assay with Hs-578T. Further, the GI50 with K562 is 27.9 µM (inactive); with KM12, 17.8 µM (inactive); with LOX IMVI it was 23.6 µM (inactive); in the assay with MCF7, 31.6 µM (inactive); in the assay on MDA-MB-435 it was > 10 µM (inactive); in the assay with MOLT-4, 23.9 µM (inactive). The GI50 in the assay on Malme-3M was 19.6 µM (inactive); in the assay with NCI/ADR-RES, 23.1 µM (inactive); in the assay with OVCAR-8 it was 33.6 µM (inactive); in the assay with SK-MEL-28 it was 18.6 µM (inactive); in the assay on SNB-75, 28 µM (inactive); with SR it was 24.8 µM (inactive).

Take `CC(C)=C[C@@H]1O[C@H](O)[C@@H]([C@H]2CC[C@@]3(C)[C@@H]4CC[C@H]5C(C)(C)C(=O)CC[C@@]56C[C@@]46CC[C@]23C)[C@@H]1O`: the GI50 in the assay on A549 is 14.4 µM (inactive); with BT-549 it was 20.1 µM (inactive); with CAKI-1 it was 17.3 µM (inactive); in the assay with HCT-15, 16.9 µM; in the assay with HOP-62, 23.7 µM (inactive); in the assay with HT-29, 11.8 µM (inactive). Also, the GI50 in the assay on Hs-578T is 21.2 µM (inactive); in the assay on K562 it was 15.6 µM (inactive); in the assay with KM12, 18.1 µM (inactive); with MCF7 it was 4.14 µM (inactive); in the assay on MDA-MB-435, 17.7 µM (inactive); in the assay on MOLT-4, 14.1 µM (inactive). The GI50 in the assay with Malme-3M is 16.8 µM (inactive); with NCI/ADR-RES, 16.7 µM (inactive); in the assay on OVCAR-8, 15.4 µM (inactive); with SK-MEL-28 it was 22.8 µM (inactive); in the assay with SK-MEL-5, 17.7 µM (inactive); in the assay on SNB-75, 17.7 µM (inactive). Moreover, the GI50 with SR is 9.64 µM (inactive).

In the case of `COc1ccc(NCc2cnc3nc(N)nc(N)c3c2C)cc1`, the GI50 is 0.303 µM (active) with A549; > 100 µM (inactive) with BT-549; 6.55 µM (inactive) with CAKI-1; 0.443 µM with HCT-15; 1.16 µM (inactive) in the assay on HOP-62; 0.406 µM (active) in the assay with HT-29. The GI50 is 59.8 µM (inactive) in the assay on Hs-578T; 0.0486 µM (active) with K562; 6.41 µM (inactive) in the assay with KM12; 0.316 µM (active) in the assay on LOX IMVI; 2.13 µM (inactive) with MCF7; 0.428 µM (active) with MDA-MB-435. Also, the GI50 in the assay on MOLT-4 was 0.493 µM (active); with NCI/ADR-RES, > 100 µM (inactive); in the assay with OVCAR-8, 0.167 µM (active); in the assay with SK-MEL-28, 8.51 µM (inactive); in the assay with SK-MEL-5 it was 0.419 µM (active); in the assay with SNB-75 it was 52 µM (inactive). Moreover, the GI50 in the assay with SR is 0.449 µM (active).

As for `NC(=O)C1=NNc2ccccc2C(=O)N1c1ccccc1`, the GI50 in the assay with A549 is > 100 µM (inactive); in the assay on BT-549, > 100 µM (inactive); with CAKI-1, > 100 µM (inactive); in the assay with HCT-15, > 100 µM; in the assay with HOP-62, > 100 µM (inactive); in the assay on HT-29 it was > 100 µM (inactive). Also, the GI50 with Hs-578T, in the assay with KM12, with LOX IMVI, with MCF7, in the assay on MDA-MB-435 and with MOLT-4 was > 100 µM (inactive) throughout. The GI50 is > 100 µM (inactive) in the assay on Malme-3M; > 100 µM (inactive) in the assay with NCI/ADR-RES; > 100 µM (inactive) with OVCAR-8; > 100 µM (inactive) with SK-MEL-28; > 100 µM (inactive) with SK-MEL-5; 14.5 µM (inactive) in the assay on SNB-75. Besides, the GI50 with SR is > 100 µM (inactive).

For `CN1CC=C(OP(=O)(NCc2ccccc2)N(CCCl)CCCl)CC1` (stereo not given), the GI50 in the assay with BT-549 was > 100 µM (inactive); in the assay on CAKI-1 it was > 100 µM (inactive); in the assay with HCT-15, > 100 µM; in the assay on HOP-62, > 100 µM (inactive); with HT-29 it was 61.8 µM (inactive); with Hs-578T, > 100 µM (inactive). The GI50 with K562, in the assay with KM12, with LOX IMVI, in the assay with MCF7, with MDA-MB-435 and with MOLT-4 was > 100 µM (inactive) each time. Further, the GI50 with Malme-3M is > 100 µM (inactive); with NCI/ADR-RES, > 100 µM (inactive); with OVCAR-8, > 100 µM (inactive); in the assay with SK-MEL-28, 95.3 µM (inactive); with SNB-75, 89.3 µM (inactive); in the assay with SR it was > 100 µM (inactive).
